Assay results from ChEMBL document CHEMBL4411344, “Synthesis and biological evaluation of new long-chain squaramides as anti-chagasic agents in the BALB/c mouse model” (Bioorg Med Chem, 2019).
Calls of active or inactive are those of the source. The rule behind the calls is not given here.

Key:
[1] = (§1) Hepatotoxicity in Balb/c mouse infected with Trypanosoma cruzi MHOM/Pe/2011/Arequipa DTU 5 trypomastigotes assessed as increase in ratio of serum AST to GOT level at 20 mg/kg, po once daily for 5 consecutive days starting from day 75 post infection measured on day 81 post infection relative to control; format: toxicity, organism-based; settings: in vivo
Trypanosoma cruzi [2] = experiment: (§2) Antitrypanosomal activity against Trypanosoma cruzi MHOM/Pe/2011/Arequipa DTU 5 trypomastigotes infected in Balb/c mouse assessed as parasite-free bone marrow at 20 mg/kg, po pretreated once daily for 5 consecutive days starting from day 10 post infection followed by cyclophosphamide-induced immunosuppression on day 100 post infection measured on day 127 post infection by PCR method; format: functional
[3] = Hepatotoxicity in Balb/c mouse infected with Trypanosoma cruzi MHOM/Pe/2011/Arequipa DTU 5 trypomastigotes assessed as increase in total bilirubin level at 20 mg/kg, po once daily for 5 consecutive days starting from day 75 post infection measured on day 81 post infection relative to control; format: toxicity, organism-based; settings: in vivo
Trypanosoma cruzi [4] = experiment: as §2, with “as parasite-free oesophagus at 20” for “as parasite-free bone marrow at 20”, “from day 75 post infection” for “from day 10 post infection”; format: functional
Trypanosoma cruzi [5] = experiment: Antitrypanosomal activity against Trypanosoma cruzi MHOM/Pe/2011/Arequipa DTU 5 epimastigotes assessed as change in mitochondrial membrane potential at IC25 after 72 hrs by Rho123 staining based flow cytometry relative to control; format: functional
Trypanosoma cruzi [6] = experiment: as §2, with “as parasite-free stomach at 20” for “as parasite-free bone marrow at 20”, “from day 75 post infection” for “from day 10 post infection”; format: functional
Trypanosoma cruzi [7] = experiment: Antitrypanosomal activity against Trypanosoma cruzi MHOM/Pe/2011/Arequipa DTU 5 trypomastigotes infected in Balb/c mouse assessed as reduction in parasitaemia reactivation at 20 mg/kg, po pretreated once daily for 5 consecutive days starting from day 75 post infection followed by cyclophosphamide-induced immunosuppression on day 100 post infection measured within 1 week post immunosuppression by Neubauer chamber method; format: functional; design: scale not given: the % may be the effect or the level left
Trypanosoma cruzi [8] = experiment: as §2, with “reduction in Ig-G level in serum” for “parasite-free bone marrow”, “ELISA” for “PCR method”; format: functional, organism-based
[9] = Nephrotoxicity in Balb/c mouse infected with Trypanosoma cruzi MHOM/Pe/2011/Arequipa DTU 5 trypomastigotes assessed as decrease in serum uric acid level at 20 mg/kg, po once daily for 5 consecutive days starting from day 10 post infection measured on day 16 post infection relative to control; format: toxicity, organism-based; design: scale not given: the % may be the effect or the level left; settings: in vivo
Trypanosoma cruzi [10] = experiment: Antitrypanosomal activity against Trypanosoma cruzi MHOM/Pe/2011/Arequipa DTU 5 trypomastigotes infected in Balb/c mouse assessed as reduction in Ig-G level in serum at 20 mg/kg, po once daily for 5 consecutive days starting from day 10 post infection measured on day 16 post infection by ELISA; format: functional, organism-based
[11] = Nephrotoxicity in Balb/c mouse infected with Trypanosoma cruzi MHOM/Pe/2011/Arequipa DTU 5 trypomastigotes assessed as decrease in serum urea level at 20 mg/kg, po once daily for 5 consecutive days starting from day 75 post infection measured on day 81 post infection relative to control; format: toxicity, organism-based; settings: in vivo
Trypanosoma cruzi [12] = experiment: Antitrypanosomal activity against Trypanosoma cruzi MHOM/Pe/2011/Arequipa DTU 5 trypomastigotes infected in Balb/c mouse assessed as reduction in Ig-G level in serum at 20 mg/kg, po once daily for 5 consecutive days starting from day 75 post infection measured on day 81 post infection by ELISA; format: functional, organism-based
[13] = Nephrotoxicity in Balb/c mouse infected with Trypanosoma cruzi MHOM/Pe/2011/Arequipa DTU 5 trypomastigotes assessed as decrease in serum urea level at 20 mg/kg, po once daily for 5 consecutive days starting from day 10 post infection measured on day 16 post infection relative to control; format: toxicity, organism-based; settings: in vivo
Trypanosoma cruzi [14] = experiment: as §2, with “heart” for “bone marrow”; format: functional
Trypanosoma cruzi [15] = experiment: as §2, with “as parasite-free spleen at 20” for “as parasite-free bone marrow at 20”, “from day 75 post infection” for “from day 10 post infection”; format: functional
Trypanosoma cruzi [16] = experiment: as §2, with “as parasite-free adipose tissue at 20” for “as parasite-free bone marrow at 20”, “from day 75 post infection” for “from day 10 post infection”; format: functional
Trypanosoma cruzi [17] = experiment: Antitrypanosomal activity against Trypanosoma cruzi MHOM/Pe/2011/Arequipa DTU 5 trypomastigotes infected in Balb/c mouse assessed as reduction in splenomegaly at 20 mg/kg, po once daily for 5 consecutive days starting from day 75 post infection measured on day 127 post infection relative to control; format: functional; design: scale not given: the % may be the effect or the level left
Trypanosoma cruzi [18] = experiment: Antitrypanosomal activity against Trypanosoma cruzi MHOM/Pe/2011/Arequipa DTU 5 trypomastigotes infected in Balb/c mouse assessed as reduction in splenomegaly at 20 mg/kg, po once daily for 5 consecutive days starting from day 10 post infection measured on day 127 post infection relative to control; format: functional; design: scale not given: the % may be the effect or the level left
Trypanosoma cruzi [19] = experiment: Antitrypanosomal activity against Trypanosoma cruzi MHOM/Pe/2011/Arequipa DTU 5 trypomastigotes infected in Balb/c mouse assessed as reduction in Ig-G level in serum at 20 mg/kg, po pretreated once daily for 5 consecutive days starting from day 75 post infection followed by cyclophosphamide-induced immunosuppression on day 100 post infection measured on day 127 post infection by ELISA; format: functional, organism-based
Trypanosoma cruzi [20] = experiment: Trypanocidal activity against Trypanosoma cruzi MHOM/Pe/2011/Arequipa DTU 5 amastigotes infected in African green monkey Vero cells assessed as reduction in number of amastigotes per infected cells at log -0.41 to 1.7 after 72 hrs by Giemsa-staining based assay; format: functional, organism-based
Trypanosoma cruzi [21] = experiment: as §2, with “as parasite-free brain at 20” for “as parasite-free bone marrow at 20”, “from day 75 post infection” for “from day 10 post infection”; format: functional
[22] = as §1, with “change” for “increase”, “ALT” for “AST”, “GPT” for “GOT”, “10” for “75”, “127” for “81”, “by biochemical analysis (reference value: 49 U/L)” for “relative to control”; format: toxicity, organism-based; settings: in vivo
Trypanosoma cruzi [23] = experiment: as §2, with “muscle” for “bone marrow”; format: functional
Trypanosoma cruzi [24] = experiment: as §2, with “stomach” for “bone marrow”; format: functional
Trypanosoma cruzi [25] = experiment: as §2, with “brain” for “bone marrow”; format: functional
Trypanosoma cruzi [26] = experiment: as §2, with “as parasite-free heart at 20” for “as parasite-free bone marrow at 20”, “from day 75 post infection” for “from day 10 post infection”; format: functional
Trypanosoma cruzi [27] = experiment: Antitrypanosomal activity against Trypanosoma cruzi MHOM/Pe/2011/Arequipa DTU 5 epimastigotes assessed as reduction in DNA and RNA levels at IC25 after 72 hrs by acridine orange staining based flow cytometry relative to control; format: functional
Trypanosoma cruzi [28] = experiment: as §2, with “from day 75 post infection” for “from day 10 post infection”; format: functional

CCCCCCCCCCCCCCCCNc1c(N(C)CCCN(C)C)c(=O)c1=O
Activity [1]: 10 to 20 U/L
Activity (Trypanosoma cruzi [2]): 67%
Activity [3]: 20%
Activity (Trypanosoma cruzi [4]): 78%
Activity (Trypanosoma cruzi [5]): -80.61%
Activity (Trypanosoma cruzi [6]): 78%
Activity (Trypanosoma cruzi [7]): 21%
Activity (Trypanosoma cruzi [8]): Active
Activity [9]: > 40%
Activity (Trypanosoma cruzi [10]): Active
Activity [11]: 10 to 20 mg/dL
Activity (Trypanosoma cruzi [12]): inactive
Activity [13]: 10 to 20 mg/dL
Activity (Trypanosoma cruzi [14]): 67%
Activity (Trypanosoma cruzi [15]): 78%
Activity (Trypanosoma cruzi [16]): 78%
Activity (Trypanosoma cruzi [17]): 55%
Activity (Trypanosoma cruzi [18]): 66%
Activity (Trypanosoma cruzi [19]): Active
Activity (Trypanosoma cruzi [20]): Active
Activity (Trypanosoma cruzi [21]): 78%
Activity [22]: 49 U/L
Activity (Trypanosoma cruzi [23]): 67%
Activity (Trypanosoma cruzi [24]): 67%
Activity (Trypanosoma cruzi [25]): 67%
Activity (Trypanosoma cruzi [26]): 78%
inhibition (INH) (Trypanosoma cruzi [27]): 49.05%
Activity (Trypanosoma cruzi [28]): 78%

CCCCCCNc1c(N(C)CCCN(C)C)c(=O)c1=O
Activity [1]: 10 to 20 U/L
Activity (Trypanosoma cruzi [2]): inactive
Activity [3]: 10%
Activity (Trypanosoma cruzi [4]): inactive
Activity (Trypanosoma cruzi [5]): 4.69%
Activity (Trypanosoma cruzi [6]): inactive
Activity (Trypanosoma cruzi [7]): inactive
Activity (Trypanosoma cruzi [8]): inactive
Activity [9]: > 40%
Activity (Trypanosoma cruzi [10]): inactive
Activity [11]: 10 to 20 mg/dL
Activity (Trypanosoma cruzi [12]): inactive
Activity [13]: 10 to 20 mg/dL
Activity (Trypanosoma cruzi [14]): inactive
Activity (Trypanosoma cruzi [15]): inactive
Activity (Trypanosoma cruzi [16]): inactive
Activity (Trypanosoma cruzi [17]): Active
Activity (Trypanosoma cruzi [18]): Active
Activity (Trypanosoma cruzi [19]): inactive
Activity (Trypanosoma cruzi [20]): Active
Activity (Trypanosoma cruzi [21]): inactive
Activity [22]: 49 U/L
Activity (Trypanosoma cruzi [23]): inactive
Activity (Trypanosoma cruzi [24]): inactive
Activity (Trypanosoma cruzi [25]): inactive
Activity (Trypanosoma cruzi [26]): inactive
inhibition (INH) (Trypanosoma cruzi [27]): 31.13%
Activity (Trypanosoma cruzi [28]): inactive

O=C(Cn1ccnc1[N+](=O)[O-])NCc1ccccc1 [BENZNIDAZOLE]
Activity [1]: 20 to 30 U/L
Activity (Trypanosoma cruzi [2]): 33%
Activity [3]: 30%
Activity (Trypanosoma cruzi [4]): 55%
Activity (Trypanosoma cruzi [5]): -35.38%
Activity (Trypanosoma cruzi [6]): 55%
Activity (Trypanosoma cruzi [7]): 51%
Activity (Trypanosoma cruzi [8]): Active
Activity [9]: > 40%
Activity (Trypanosoma cruzi [10]): Active
Activity [11]: 20 to 30 mg/dL
Activity (Trypanosoma cruzi [12]): inactive
Activity [13]: 20 to 30 mg/dL
Activity (Trypanosoma cruzi [14]): 33%
Activity (Trypanosoma cruzi [15]): 55%
Activity (Trypanosoma cruzi [16]): 55%
Activity (Trypanosoma cruzi [17]): Active
Activity (Trypanosoma cruzi [18]): Active
Activity (Trypanosoma cruzi [19]): Active
Activity (Trypanosoma cruzi [20]): Active
Activity (Trypanosoma cruzi [21]): 55%
Activity [22]: 49 U/L
Activity (Trypanosoma cruzi [23]): 33%
Activity (Trypanosoma cruzi [24]): 33%
Activity (Trypanosoma cruzi [25]): 33%
Activity (Trypanosoma cruzi [26]): 55%
inhibition (INH) (Trypanosoma cruzi [27]): 22.38%
Activity (Trypanosoma cruzi [28]): 55%
